Assays:
[1] = test system: 3T3-L1 cells; assay: Anti-adipocyte differentiation in 3T3-L1 cells (Oil Red O, WST-8 viability); format: cell-based; details: positive control, commercially available reagent, 50 μM
Procedure: [formula] formula (1) <Anti-Adipocyte Differentiation> [Reagents] • Dulbecco's modified eagle medium (DMEM): 10% FBS (fetal bovine sera) and 1% penicillin/streptomycin were added thereto. • TrypLE™ Select (1×) • IBMX: prepared to have a concentration of 0.5 mM with DMSO. • DEX: prepared to have a concentration of 1 μM with DMSO. • insulin solution human • WST-8: upon use, diluted with the DMEM medium to give a 2% WST-8. • Oil Red O: prepared to have a concentration of 5 mg/mL with isoPrOH, and upon use, diluted with pure water to give a 60% Oil Red O. [Method] • Day 1: 3T3-L1 Cells were previously cultured in a 10 cm dish to a state of 70 to 80% confluent. […] One-hundred microliters of the medium was transferred to a fresh 96-well plate, and the absorbance at 450 nm was measured with a microplate reader. Using those cells, a cell viability (%) was calculated as a relative value to the control. […] The 96-well plate was dried, 50 μL of 100% isoPrOH was added thereto, a mixture was allowed to stand at room temperature for 10 minutes, and the absorbance at 520 nm was then measured. Using those cells, an adipocyte differentiation (%) was calculated as a relative value to the control.

[2] = Antioxidant activity (DPPH radical scavenging rate); format: biochemical; details: positive control, commercially available reagent, 12.5 μM
Procedure: Each sample dissolved in DMSO was dissolved in a 50 v/v % EtOH, so as to prepare a sample solution having a concentration of 25, 50, and 100 μg/mL, and dispensed in each well of a 96-well plate in an amount of 100 μL each. Thereto was added 100 μL each of a DPPH solution dissolved in EtOH so as to have a concentration of 0.1 mM, and the mixture was stirred with vortex (final concentration: 12.5, 25, or 50 μg/mL). Next, the plate was made light-resistant with an aluminum foil, and allowed to stand at room temperature (25° C.) for 30 minutes, and the absorbance at 517 nm was then measured (n=3). Using the absorbance obtained, the DPPH radical scavenging rate (%) was calculated according to the following formula (1). Here, as for the blank, the absorbance was measured in the same manner as the sample solutions except that a 50 v/v % EtOH containing 0.2% DMSO was used.
The 3T3-L1 cells were detached with TrypLE™ Select, and diluted with a DMEM medium to a concentration of 1.0×10^5 cells/mL, 100 μL each of a cell suspension was then dispensed into a 96-well plate, and the cells were cultured at 37° C. under 5% CO2. • Day 3: Each sample was prepared using a differentiation and induction medium (0.1% IBMX, 0.01% DEX). […] One-hundred microliters of the medium was transferred to a fresh 96-well plate, and the absorbance at 450 nm was measured with a microplate reader. […]

Row | Compound | anti-adipocyte differentiation [1] [%] | antioxidant activity [2] [%]
1 | O=c1c(O)c(-c2ccc(O)c(O)c2)oc2cc(O)cc(O)c12 [Quercetin] | 50 | –
2 | O=C1O[C@H]([C@@H](O)CO)C(O)=C1O [Vitamin C] | – | 70
